In patent US20230233569A1 (Revolution Medicines, Inc., priority 2020, published 2023) one finds IC50 and EC50 data, which are given here for nine compounds.

“And” between values parts separate entries of the source, which are not always exact repeats. Identical values can stand only once. Like-named read-outs stand apart in the source and are kept apart here.

One test deals with KRAS WT (Homo sapiens, UniProt P01116+P62937). As to the kind of experiment: Disruption of BRAF RBD interaction with Ras (FRET / MOA assay, with Cyclophilin A). It counts as biochemical. As to conditions: KRAS WT; read-out: KRAS WT FRET data IC50. Put shortly: (§1)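 Biochemical TR-FRET disruption assay: nucleotide-loaded K-Ras with Cyclophilin A and a BRAF RBD construct, compound titrated over 10 points from 30 μM (final).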
KRAS WT, sequence (P01116 1-169 isoform P01116-2 limits assumed): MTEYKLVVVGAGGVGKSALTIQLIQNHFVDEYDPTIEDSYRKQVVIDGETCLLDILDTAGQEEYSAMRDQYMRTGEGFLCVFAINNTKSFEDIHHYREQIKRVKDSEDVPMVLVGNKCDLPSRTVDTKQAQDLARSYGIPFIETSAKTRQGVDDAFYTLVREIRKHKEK
KRAS WT, sequence (P62937 whole entry): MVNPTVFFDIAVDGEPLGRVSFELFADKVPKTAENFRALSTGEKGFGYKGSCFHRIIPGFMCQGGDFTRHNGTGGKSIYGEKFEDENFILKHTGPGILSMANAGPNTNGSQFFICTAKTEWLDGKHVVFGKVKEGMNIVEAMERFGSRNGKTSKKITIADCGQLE

A further test addresses KRAS G12D (Homo sapiens, UniProt P01116+P62937, G12D). The description is as above. It counts as biochemical. As to conditions: read-out: KRAS G12D FRET data, IC50. Put shortly:
as §1

In another test the target is KRAS G12S (Homo sapiens, UniProt P01116+P62937, G12S). The test is described as above. The conditions noted are these: read-out: KRAS G12S FRET data, IC50. It counts as biochemical. Put shortly:
as §1

The target in another test is KRAS G13C (Homo sapiens, UniProt P01116+P62937, G13C). Described as above. It counts as biochemical. The conditions noted are these: KRAS G13C; read-out: KRAS G13C FRET data IC50. Put shortly:
as §1

The target in another test is KRAS G13D (Homo sapiens, UniProt P01116+P62937, G13D). The description is as above. As to conditions: KRAS G13D; read-out: KRAS G13D FRET data IC50. It counts as biochemical. Put shortly:
as §1

The target of another test is KRAS G12V (Homo sapiens, UniProt P01116+P62937, G12V). Described as above. The conditions noted are these: KRAS G12V; read-out: KRAS G12V FRET data IC50. It counts as biochemical. The essentials: as §1
KRAS G12V, sequence (P01116 1-169 isoform P01116-2 G12V limits assumed): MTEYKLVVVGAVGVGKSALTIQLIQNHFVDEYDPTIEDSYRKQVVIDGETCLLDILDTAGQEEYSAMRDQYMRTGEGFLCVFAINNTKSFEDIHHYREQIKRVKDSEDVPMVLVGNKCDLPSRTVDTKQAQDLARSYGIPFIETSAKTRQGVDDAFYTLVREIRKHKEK
KRAS G12V, sequence (P62937 whole entry): as the sequence (P62937 whole entry) above
For a further test, the target named is NRAS G12C (Homo sapiens, UniProt P01111+P62937, G12C). Described as above. As to conditions: NRAS G12C; read-out: NRAS G12C FRET data IC50. It counts as biochemical.
NRAS G12C, sequence (P01111 whole entry G12C): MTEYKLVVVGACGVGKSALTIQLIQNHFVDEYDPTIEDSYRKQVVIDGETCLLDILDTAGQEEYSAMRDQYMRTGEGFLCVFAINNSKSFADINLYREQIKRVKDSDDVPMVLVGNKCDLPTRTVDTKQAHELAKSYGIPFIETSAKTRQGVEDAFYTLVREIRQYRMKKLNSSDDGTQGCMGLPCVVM
NRAS G12C, sequence (P62937 whole entry): as the sequence (P62937 whole entry) above
For the next test, the target named is KRAS G12C (Homo sapiens, UniProt P01116+P62937, G12C). The description is as above. It counts as biochemical. As to conditions: KRAS G12C; read-out: KRAS G12C FRET data IC50. Put shortly:
as §1

The test system of test [1] is K-Ras G12C (NCI-H358 cells). As to the kind of experiment: Potency assay: pERK (AlphaLISA SureFire or In-Cell Western). It counts as cell-based. As to conditions: Homo sapiens. On the procedure:
(§2) The purpose of this assay is to measure the ability of test compounds to inhibit K-Ras in cells. […] This procedure measures a decrease in cellular pERK in response to test compounds.
(§3) NCI-H358 cells were grown and maintained using media and procedures recommended by the ATCC. On the day prior to compound addition, cells were plated in 384-well cell culture plates (40 μl/well) and grown overnight in a 37° C., 5% CO2 incubator. Test compounds were prepared in 10, 3-fold dilutions in DMSO, with a high concentration of 10 mM. On the day of assay, 40 nL of test compound was added to each well of cell culture plate using an Echo550 liquid handler (LabCyte®). Concentrations of test compound were tested in duplicate. After compound addition, cells were incubated 4 hours at 37° C., 5% CO2. Following incubation, culture medium was removed and cells were washed once with phosphate buffered saline.
(§4) In some experiments, cellular pERK level was determined using the AlphaLISA SureFire Ultra p-ERK1/2 Assay Kit (PerkinElmer). Cells were lysed in 25 μL lysis buffer, with shaking at 600 RPM at room temperature. […] After a 2-hour incubation in the dark, 5 μL donor mix was added, plate was sealed, and incubated 2 hours at room temperature. Signal was read on an Envision plate reader (PerkinElmer) using standard AlphaLISA settings. Analysis of raw data was carried out in Excel (Microsoft) and Prism (GraphPad). Signal was plotted vs. the decadal logarithm of compound concentration, and IC50 was determined by fitting a 4-parameter sigmoidal concentration response model.
In other experiments, cellular pERK was determined by In-Cell Western. […] Fixed cells were washed 4 times for 5 minutes with TBS containing 0.1% Triton X-100 (TBST) and then blocked with 100 μL Odyssey blocking buffer (LI-COR) for 60 minutes at room temperature. […] Cells were washed 4 times for 5 minutes with TBST. Secondary antibody (IR-800CW rabbit, LI-COR, diluted 1:800) and DNA stain DRAQ5 (LI-COR, diluted 1:2000) were added and incubated 1-2 hours at room temperature. Cells were washed 4 times for 5 minutes with TBST. Plates were scanned on a LI-COR Odyssey CLx Imager. Analysis of raw data was carried out in Excel (Microsoft) and Prism (GraphPad). Signal was plotted vs. the decadal logarithm of compound concentration, and IC50 was determined by fitting a 4-parameter sigmoidal concentration response model.
as §2
as §3, with “mM. On day of” for “mM. On the day of”, “assay, 40 nl of test” for “assay, 40 nL of test”
as §4, with “μl” for “μL”, “sealed” for “sealed,”
For orientation: Alpha assays give light when donor and acceptor beads are brought close together.

The next test has as its system NCI-H358 (K-Ras G12C). As to the kind of experiment: CellTiter-Glo cell viability assay, 5-day treatment. As to conditions: Homo sapiens. It counts as cell-based. Put shortly: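 Luminescence read-out after 5 days of compound exposure, with plates first brought to room temperature for roughly 30 minutes. Values are percent of averaged DMSO wells, fitted by four-parameter logistic regression.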
A general note: Cellular ATP, detected with luciferase, serves as a proxy for viable cell number.

[2] abbreviates: NCI-H358, H358 KRAS G12C, read-out: pERK EC50.
The mark [3] stands for this setting: NCI-H358, H358, K-Ras G12C, read-out: Additional H358 Cell Viability assay data (K-Ras G12C, IC50).

Usually IC50 stands for the concentration that gives 50% inhibition. For orientation: EC50 means the concentration giving half of the maximal effect.

KRAS G12S, sequence (P01116 1-169 isoform P01116-2 G12S limits assumed): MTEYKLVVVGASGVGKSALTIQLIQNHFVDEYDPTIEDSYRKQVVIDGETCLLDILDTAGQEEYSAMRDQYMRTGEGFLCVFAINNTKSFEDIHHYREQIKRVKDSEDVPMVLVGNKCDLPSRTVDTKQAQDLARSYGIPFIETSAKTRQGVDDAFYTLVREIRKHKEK
KRAS G12S, sequence (P62937 whole entry): as the sequence (P62937 whole entry) above
KRAS G12D, sequence (P01116 1-169 isoform P01116-2 G12D limits assumed): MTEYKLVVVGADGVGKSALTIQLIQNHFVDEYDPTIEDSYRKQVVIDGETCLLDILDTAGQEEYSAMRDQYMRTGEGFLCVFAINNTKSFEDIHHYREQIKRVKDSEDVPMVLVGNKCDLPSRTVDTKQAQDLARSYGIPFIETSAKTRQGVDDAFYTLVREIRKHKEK
KRAS G12D, sequence (P62937 whole entry): as the sequence (P62937 whole entry) above
KRAS G13C, sequence (P01116 1-169 isoform P01116-2 G13C): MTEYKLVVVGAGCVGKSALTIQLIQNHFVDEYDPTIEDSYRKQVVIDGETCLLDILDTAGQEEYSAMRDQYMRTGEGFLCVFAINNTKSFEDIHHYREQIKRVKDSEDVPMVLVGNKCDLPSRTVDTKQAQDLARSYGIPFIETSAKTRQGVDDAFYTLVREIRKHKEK
KRAS G13C, sequence (P62937 whole entry): as the sequence (P62937 whole entry) above
KRAS G12C, sequence (P01116 1-169 isoform P01116-2 G12C): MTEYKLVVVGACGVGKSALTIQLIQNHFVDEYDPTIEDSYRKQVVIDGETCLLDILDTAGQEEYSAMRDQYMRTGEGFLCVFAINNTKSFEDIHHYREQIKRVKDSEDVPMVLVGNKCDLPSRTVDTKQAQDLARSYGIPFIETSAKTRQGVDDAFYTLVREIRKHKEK
KRAS G12C, sequence (P62937 whole entry): as the sequence (P62937 whole entry) above
KRAS G13D, sequence (P01116 1-169 isoform P01116-2 G13D limits assumed): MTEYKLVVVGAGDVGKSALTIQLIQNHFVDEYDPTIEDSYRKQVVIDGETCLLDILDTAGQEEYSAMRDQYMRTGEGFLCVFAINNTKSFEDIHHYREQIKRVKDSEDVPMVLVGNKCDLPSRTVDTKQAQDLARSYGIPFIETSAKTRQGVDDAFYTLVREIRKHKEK
KRAS G13D, sequence (P62937 whole entry): as the sequence (P62937 whole entry) above

Consider `C=CC(=O)N1CC(OC[C@H](C(=O)N[C@H]2Cc3cccc(c3)-c3ccc4c(c3)c(c(-c3cccnc3[C@H](C)OC)n4CC)CC(C)(C)COC(=O)[C@@H]3CCCN(N3)C2=O)C(C)C)C1` (racemic) [Example A483], for which the IC50 on KRAS WT was 1 to 10 µM; on KRAS G12D, over 10 µM; on KRAS G12S, over 10 µM; at KRAS G13C, 1 to 10 µM; at KRAS G13D, over 10 µM; at KRAS G12V it was 1 to 10 µM. Also, the IC50 at NRAS G12C and on KRAS G12C was 0.1 to 1 µM throughout. Moreover, in [1] (setting [2]), the EC50 was under 5 µM.
For `C=CC(=O)N1CC[C@H](C(=O)N(C)[C@H](C(=O)N[C@H]2Cc3cccc(c3)-c3ccc4c(c3)c(c(-c3cccnc3COC)n4CC)CC(C)(C)COC(=O)[C@@H]3CCCN(N3)C2=O)C(C)C)C1` [Example A65], the IC50 in the test on NCI-H358 (K-Ras G12C) (setting [3]) lay within 0.1 to 1 µM. Further, in [1] (setting [2]), the EC50 was under 5 µM.
As for `CC#CC(=O)N1CC[C@H](C(=O)N(C)[C@@H](C(=O)N[C@H]2Cc3cc(O)cc(c3)-c3ccc4c(c3)c(c(-c3cccnc3[C@H](C)OC)n4CC)CC(C)(C)COC(=O)[C@@H]3CCCN(N3)C2=O)C(C)C)C1` [Example A199], the IC50 in the test on NCI-H358 (K-Ras G12C) (NCI-H358, read-out: Additional H358 Cell Viability assay data (K-Ras G12C, IC50, uM), H358, K-Ras G12C) lay in the range of 0.1 to 1 µM. Further, the EC50 in test [1] (NCI-H358, read-out: pERK EC50) is under 5 µM.
For `C=CC(=O)N1CC[C@H](C(=O)N(C)[C@H](C(=O)N[C@H]2Cc3cc(O)cc(c3)-c3ccc4c(c3)c(c(-c3ccc5c(c3)CN(C)C5)n4CC)CC(C)(C)COC(=O)[C@@H]3CCCN(N3)C2=O)C(C)C)C1` [Example A212], the IC50 at KRAS WT is 1 to 10 µM and > 10 µM; on KRAS G12D, over 10 µM; on KRAS G12S it was 1 to 10 µM and > 10 µM; on KRAS G13C, 1 to 10 µM and > 10 µM; at KRAS G13D it was 1 to 10 µM and > 10 µM; at KRAS G12V it was 1 to 10 µM and > 10 µM. Further, the IC50 was 0.1 to 1 µM and 1 to 10 µM on NRAS G12C; 0.1 to 1 µM and 1 to 10 µM on KRAS G12C. For the same compound, the EC50 in test [1] (setting [2]) was under 5 µM.
Turning to `C=CC(=O)N1CC[C@]2(CCN([C@H](C(=O)N[C@H]3Cc4cc(O)cc(c4)-c4ccc5c(c4)c(c(-c4ccccc4CCOC)n5CC)CC(C)(C)COC(=O)[C@@H]4CCCN(N4)C3=O)C(C)C)C2=O)C1` [Example A216], the IC50 on KRAS WT is 1 to 10 µM and > 10 µM; on KRAS G12D it was over 10 µM; at KRAS G12S, 1 to 10 µM and > 10 µM; at KRAS G13C, 0.1 to 1 µM and > 10 µM; on KRAS G12V it was 1 to 10 µM and > 10 µM; on KRAS G12C, 0.1 to 1 µM and 1 to 10 µM. In addition, the concentration giving a half-maximal response (EC50) in test [1] (setting [2]) was under 5 µM.
For the compound `C=CC(=O)N1CCC(C(=O)N(C)C(C(=O)NC2Cc3nc(cs3)-c3ccc4c(c3)c(c(-c3cccnc3C(C)OC)n4CC)CC(C)(C)COC(=O)C3CCCN(N3)C2=O)C(C)C)C1` (stereo not drawn) [Example A279], the IC50 at KRAS WT was over 10 µM; on KRAS G12D it was over 10 µM; on KRAS G12S, over 10 µM; on KRAS G13C it was 1 µM to 10 µM and > 10 µM (2×); on KRAS G13D, over 10 µM; at KRAS G12V, over 10 µM. For the same compound, the IC50 on NRAS G12C was 1 µM to 10 µM and > 10 µM (2×); on KRAS G12C, 1 µM to 10 µM and > 10 µM (2×). Moreover, the EC50 in test [1] (setting [2]) is under 5 µM.
On to `CCn1c(-c2cccnc2[C@H](C)OC)c2c3cc(ccc31)-c1cccc(c1)C[C@H](NC(=O)[C@H](C(C)C)N(C)C(=O)[C@H]1CCN(C(=O)C#C[C@@H]3CCO3)C1)C(=O)N1CCC[C@H](N1)C(=O)OCC(C)(C)C2` [Example A509], for which the IC50 in the test on NCI-H358 (K-Ras G12C) (setting [3]) and on NRAS G12C was under 0.01 µM each time. For the same compound, the EC50 in test [1] (setting [2]) is under 5 µM.
With `CCn1c(-c2cccnc2[C@H](C)OC)c2c3cc(ccc31)-c1cccc(n1)C[C@H](NC(=O)[C@H](C(C)C)N1CC[C@@]3(CCN(C(=O)C#C[C@@H]4COCCN4C)C3)C1)C(=O)N1CCC[C@H](N1)C(=O)OCC(C)(C)C2` [Example A549], the IC50 in the test on NCI-H358 (K-Ras G12C) (setting [3]) was under 0.01 µM. Also, in [1] (setting [2]), the EC50 is under 5 µM.
Taken in the same sequence, the figures for `CCn1c(-c2cccnc2[C@H](C)OC)c2c3cc(ccc31)-c1cccc(c1)C[C@H](NC(=O)[C@H](C(C)C)N1CC[C@@]3(CCN(C(=O)C#C[C@@H]4COCCN4C4COC4)C3)C1=O)C(=O)N1CCC[C@H](N1)C(=O)OCC(C)(C)C2` [Example A566] were under 0.01 µM and under 5 µM.
